Here are results for 28 compounds from US20260198495A1, “BINARY INSECTICIDE COMPOSITION AND USE THEREOF” (SHENYANG SINOCHEM AGROCHEMICALS R & D CO., LTD., priority 2022, published 2026).

Assay type in all cases: in vivo
Series [1] concerns Aphis craccivora nymphs. The series can be described thus: Synergism screening (Bliss) of I-72 + pyrethroid insecticides, Example 38, Table 38. As to conditions: for mortality at 0.15 µg/mL / mortality at 2 µg/mL / mortality at 3 µg/mL / mortality at 0.3 µg/mL / mortality at 1 µg/mL: Aphis craccivora, in Vicia faba, 48 h; for mortality at 0.15 µg/mL: read-out: Measured mortality rate (%), single pesticide, concentration 0.15 mg/L, broad bean seedling spraying; for mortality at 2 µg/mL: read-out: Measured mortality rate (%), single pesticide, concentration 2 mg/L, broad bean seedling spraying; for mortality at 3 µg/mL: read-out: Measured mortality rate (%), single pesticide, concentration 3 mg/L, broad bean seedling spraying; for Measured mortality rate (%): single pesticide, broad bean seedling spraying, 48 hours; for mortality at 0.3 µg/mL: read-out: Measured mortality rate (%), single pesticide, concentration 0.3 mg/L, broad bean seedling spraying; for mortality at 1 µg/mL: read-out: Measured mortality rate (%), single pesticide, concentration 1 mg/L, broad bean seedling spraying. On the procedure:
Test target: Aphis craccivora nymphs, a sensitive strain reared indoors.
(§1) Preparation of the pesticide solution: according to different test requirements, the test samples were accurately weighed respectively with an electronic analytical balance. The technical pesticides were dissolved in acetone, and then diluted with 0.1% Tween 80 water into a series of pesticide solutions with a certain concentration gradient according to the experimental design dosage.
Experimental method: first, broad bean seedlings with uniform and consistent Aphis craccivora were selected, with about 30-40 insects on each seedling. Then, they were evenly sprayed with the pesticide solution in the order from low dosage to high dosage according to the experimental design, with 1.5 mL of the solution for each leaf and 3 replicates for each treatment. In addition, a blank control (CK) was set up.
The treated test materials were placed in an observation room, and the temperature, humidity and illumination of the observation room could be adjusted as needed. The number of dead and alive insects was investigated 48 hours later, and the corrected mortality rate was calculated using the Abbott's formula.
(§2) The synergism of the mixture was evaluated by adopting the Bliss method, as in Example 5.

Series [2] relates to 3rd-instar larvae of Yponomeuta evonymallus (Linnaeus). Briefly: Synergism screening (Bliss) of I-72 + pyrethroid insecticides, Example 37, Table 37. As to conditions: single pesticide, leaf dipping, 72 hours. On the procedure:
Test target: 3rd-instar larvae of Yponomeuta evonymallus (Linnaeus).
as §1
Experimental method: Firstly, Hylotelephium spectabile leaves were selected and dipped into the prepared pesticide solutions for 10 s in the order from low dosage to high dosage according to the experimental design. After natural air-drying in the shade, they were placed in a 9-cm-diameter Petri dish with filter paper, and uniform and healthy test insects were introduced, with 10 insects for each treatment and 3 replicates for each treatment. In addition, a blank control (CK) was set up.
(§3) The treated test materials were placed in an observation room, and the temperature, humidity and illumination of the observation room could be adjusted as needed. The number of dead and alive insects was investigated 72 hours later, and the corrected mortality rate was calculated using the Abbott's formula.
(§4) The synergism of the mixture was evaluated by the Bliss method. According to the concept of independent joint action he proposed, Bliss believes that the theoretical mortality rate P when insecticides are used in combination can be calculated by the following formula: […]
(§5) Pm is the measured mortality rate (%) of the target when the first active ingredient is at a concentration of m; and Pn is the measured mortality rate (%) of the target when the second active ingredient is used at a concentration of n.
(§6) If the actual mortality rate of the target after the two active ingredients are mixed at a certain concentration is greater than theoretical mortality rate P, it is determined that the two active ingredients have a synergistic effect when used in combination at the set concentration, and otherwise, they have an antagonistic effect.

Series [3] has as its system 2nd-instar larvae of Plutella xylostella. Briefly: Synergism screening (Bliss) of I-72 + insect attractants and insecticides, Example 49, Table 49. As to conditions: for Measured mortality rate: single pesticide, 72 hours. On the procedure:
(§7) Test target: 2nd-instar larvae of Plutella xylostella.
as §1
Experimental method: first, cabbage leaves were selected and dipped in the prepared pesticide solution for 10 s in the order from low dosage to high dosage according to the experimental design. After natural air-drying in the shade, they were placed in a 9-cm-diameter Petri dish with filter paper, and uniform and healthy test insects were introduced, with 10 insects for each treatment and 3 replicates for each treatment. In addition, a blank control CK was set up.
as §3, §2

Series [4] has the same test system. Briefly: whole plant or invertebrate. The settings on record: for Measured mortality rate: single pesticide, 72 hours; for mortality at 0.025 µg/mL / mortality at 0.5 µg/mL / mortality at 10 µg/mL / mortality at 0.01 µg/mL / mortality at 25 µg/mL: Plutella xylostella, 72 h, read-out: Measured mortality rate. The procedure: as §7, §1
Experimental method: first, cabbage leaves were selected and dipped in the prepared pesticide solution for 10 s in the order from low dosage to high dosage according to the experimental design. After natural air-drying in the shade, they were placed in a 9-cm-diameter Petri dish with filter paper, and uniform and healthy test insects were introduced, with 10 insects for each treatment and 3 replicates for each treatment. In addition, a blank control (CK) was set up.
as §3, §4, §5, §6

[5] abbreviates: Plutella xylostella, 72 h, read-out: Measured mortality rate.

In the case of `Cc1c(COC(=O)[C@@H]2[C@H](/C=C(\Cl)C(F)(F)F)C2(C)C)cccc1-c1ccccc1` (racemic) [Bifenthrin], in series [1], the mortality at 0.15 µg/mL came to 10%, the mortality at 2 µg/mL amounted to 49.1% and the mortality at 3 µg/mL came to 62%.

In the case of `CC1(C)[C@H](C(=O)O[C@H](C#N)c2cccc(Oc3ccccc3)c2)[C@@H]1/C=C(\Cl)C(F)(F)F` (racemic) [Lambda-cyhalothrin], the “Measured mortality rate (%)” value is recorded as 16.1% in series [2] (concentration 0.25 mg/L), 39.3% in series [2] (concentration 2 mg/L) and 53.3% in series [2] (concentration 5 mg/L).

For `CC1(C)C(C=C(Cl)Cl)C1C(=O)OC(C#N)c1cccc(Oc2ccccc2)c1` (stereo not drawn) [Alpha-cypermethrin], the results for the “Measured mortality rate (%)” value in series [2] (concentration 0.5 mg/L), in series [2] (concentration 1 mg/L) and in series [2] (concentration 5 mg/L) were 9.1%, 19.4% and 43.8%, respectively.

Turning to `CC1(C)C(C=C(Cl)Cl)C1C(=O)OC(C#N)c1ccc(F)c(Oc2ccccc2)c1` (stereo not drawn) [Beta-cyfluthrin], the “Measured mortality rate (%)” value is given as 12.9% in series [2] (concentration 0.5 mg/L), 21.4% in series [2] (concentration 1 mg/L) and 51.6% in series [2] (concentration 5 mg/L).

For the compound `CC1(C)[C@H](C=C(Cl)Cl)[C@H]1C(=O)O[C@@H](C#N)c1cccc(Oc2ccccc2)c1` [Beta-cypermethrin], the entries for the “Measured mortality rate (%)” value in series [1] (concentration 0.3 mg/L) and in series [1] (concentration 1 mg/L) were 16.1% and 49.7%, respectively.

For the compound `CC12CCC(CC1=O)C2(C)C` (stereo not shown) [Camphor], in series [3] (setting [5]), the mortality at 0.002 µg/mL was determined as 7.4%, the mortality at 0.1 µg/mL turned out to be 9.7% and the mortality at 5 µg/mL was 13.8%.

Regarding `O=C(NC(=O)c1ccccc1Cl)Nc1ccc(Cl)cc1` [Chlorbenzuron], the Measured mortality rate in series [4] (0.01 mg/L) came to 6.5%; in series [4] (0.5 mg/L), 14.8%; in series [4] (25 mg/L), 25.8%.

`O=C(NC(=O)c1c(F)cccc1F)Nc1cc(Cl)c(Oc2ncc(C(F)(F)F)cc2Cl)c(Cl)c1` [Chlorfluazuron]: in series [4], the mortality at 0.025 µg/mL is 3.4%, the mortality at 0.5 µg/mL amounted to 10.3% and the mortality at 10 µg/mL was found to be 24.1%.

`CC1(C)C(C=C(Cl)Cl)C1C(=O)OC(C#N)c1ccc(F)c(Oc2ccccc2)c1` (stereo not shown) [Cyfluthrin]: the “Measured mortality rate (%)” value was determined as 10.0% in series [2] (concentration 0.5 mg/L), 18.8% in series [2] (concentration 1 mg/L) and 48.4% in series [2] (concentration 5 mg/L).

With `CC1(C)C(C=C(Cl)Cl)C1C(=O)OC(C#N)c1cccc(Oc2ccccc2)c1` (stereo not shown) [Cypermethrin], in series [1], the mortality at 0.15 µg/mL worked out at 13.3% and the mortality at 2 µg/mL came out at 60.9%.

Consider `CC1(C)[C@H](C(=O)O[C@H](C#N)c2cccc(Oc3ccccc3)c2)[C@@H]1C=C(Br)Br` [Deltamethrin], for which, in series [1], the mortality at 0.3 µg/mL worked out at 17.3%, the mortality at 1 µg/mL was 28% and the mortality at 3 µg/mL was 61.4%.

Regarding `CC(C)c1cc(Oc2ccccc2)cc(C(C)C)c1NC(=S)NC(C)(C)C` [Diafenthiuron], in series [4], the mortality at 0.025 µg/mL came to 6.3%, the mortality at 0.5 µg/mL turned out to be 13.3% and the mortality at 10 µg/mL worked out at 21.4%.

As to `O=C(NC(=O)c1c(F)cccc1F)Nc1ccc(Cl)cc1` [Diflubenzuron], in series [4], the mortality at 0.01 µg/mL stood at 11.1%, the mortality at 0.5 µg/mL came out at 12.9% and the mortality at 25 µg/mL amounted to 31%.

As to `CC(C)[C@H](C(=O)O[C@H](C#N)c1cccc(Oc2ccccc2)c1)c1ccc(Cl)cc1` [Esfenvalerate], the “Measured mortality rate (%)” value stood at 9.4% in series [2] (concentration 0.5 mg/L), 13.8% in series [2] (concentration 1 mg/L) and 40.0% in series [2] (concentration 5 mg/L).

Consider `CCOc1ccc(C(C)(C)COCc2cccc(Oc3ccccc3)c2)cc1` [Etofenprox], for which, in series [1], the mortality at 0.15 µg/mL was 14% and the mortality at 2 µg/mL came out at 49.5%.

As for `CC1(C)C(C(=O)OC(C#N)c2cccc(Oc3ccccc3)c2)C1(C)C` (stereo not shown) [Fenpropathrin], the “Measured mortality rate (%)” value was 13.3% in series [2] (concentration 0.5 mg/L), 22.6% in series [2] (concentration 1 mg/L) and 40.7% in series [2] (concentration 5 mg/L).

Turning to `CC(C)C(C(=O)OC(C#N)c1cccc(Oc2ccccc2)c1)c1ccc(Cl)cc1` (stereo not shown) [Fenvalerate], in series [1], the mortality at 0.3 µg/mL turned out to be 14.7%, the mortality at 1 µg/mL worked out at 29% and the mortality at 3 µg/mL was found to be 51.1%.

For `N#Cc1nn(-c2c(Cl)cc(C(F)(F)F)cc2Cl)c(N)c1[S+]([O-])C(F)(F)F` (stereo not shown) [Fipronil], in series [3] (setting [5]), the mortality at 0.01 µg/mL stood at 6.7%, the mortality at 0.1 µg/mL is 16.7% and the mortality at 1 µg/mL is 27.6%.

For `O=C(NC(=O)c1c(F)cccc1F)Nc1ccc(Oc2ccc(C(F)(F)F)cc2Cl)cc1F` [Flufenoxuron], in series [4], the mortality at 0.01 µg/mL is 9.7%, the mortality at 0.5 µg/mL stood at 10.7% and the mortality at 25 µg/mL came to 27.6%.

On to `CON=CNC(=O)c1ccc(C2=NOC(c3cc(Cl)cc(Cl)c3)(C(F)(F)F)C2)cc1C` (stereo not shown) [Fluxametamide], for which the Measured mortality rate in series [3] (0.01 mg/L) came out at 6.9%; in series [3] (0.1 mg/L), 48.4%; in series [3] (1 mg/L), 75.9%.

As for `CC1(C)[C@H](C(=O)O[C@H](C#N)c2cccc(Oc3ccccc3)c2)[C@@H]1/C=C(\Cl)C(F)(F)F` [Gamma-cyhalothrin], the “Measured mortality rate (%)” value in series [2] (concentration 0.1 mg/L) was found to be 6.9%; in series [2] (concentration 5 mg/L), 48.3%.

As for `O=C(NC(=O)c1c(F)cccc1F)Nc1cc(Cl)c(OC(F)(F)C(F)F)c(Cl)c1` [Hexaflumuron], in series [4], the mortality at 0.025 µg/mL was 6.7%, the mortality at 0.5 µg/mL was determined as 13.8% and the mortality at 10 µg/mL came to 22.6%.

On to `O=C(NC(=O)c1c(F)cccc1F)Nc1cc(Cl)c(OC(F)(F)C(F)C(F)(F)F)cc1Cl` (stereo not shown) [Lufenuron], for which, in series [4], the mortality at 0.025 µg/mL was 7.4%, the mortality at 0.5 µg/mL turned out to be 12.5% and the mortality at 10 µg/mL was found to be 20.7%.

With `CC1(C)C(C=C(Cl)Cl)C1C(=O)OCc1cccc(Oc2ccccc2)c1` (stereo not shown) [Permethrin], in series [1], the mortality at 0.3 µg/mL is 12%, the mortality at 1 µg/mL was 25.3% and the mortality at 3 µg/mL came to 64.8%.

On to `CC1(C)[C@H](C=C(Cl)Cl)[C@H]1C(=O)O[C@H](C#N)c1cccc(Oc2ccccc2)c1` [Theta-cypermethrin], for which the “Measured mortality rate (%)” value in series [2] (concentration 0.5 mg/L) is reported as 10.3%; in series [2] (concentration 1 mg/L), 16.7%; in series [2] (concentration 5 mg/L) it was 46.4%.

With `O=C(NC(=O)c1ccccc1Cl)Nc1ccc(OC(F)(F)F)cc1` [Triflumuron], in series [4], the mortality at 0.025 µg/mL came out at 6.9%, the mortality at 0.5 µg/mL is 13.8% and the mortality at 10 µg/mL was 17.2%.

For `CC1(C)C(C=C(Cl)Cl)C1C(=O)OC(C#N)c1cccc(Oc2ccccc2)c1` (stereo not shown) [Zeta-cypermethrin], the “Measured mortality rate (%)” value in series [1] (concentration 0.15 mg/L) is reported as 17.1%; in series [1] (concentration 2 mg/L), 64.5%.

Turning to Pyrethrin, the figures for the “Measured mortality rate (%)” value in series [1] (concentration 0.3 mg/L), in series [1] (concentration 1 mg/L) and in series [1] (concentration 3 mg/L) were 15.6%, 25.6% and 63.0%, respectively.
